Reference: US9446128B2 (priority 2008, dated 2016)
Values joined by “and” are separate entries in the source; they are usually repeats but may differ in a detail not shown here. Equal entries are not always repeated.

System: salmonella typimurium TA100
Experiment: Microorganism reverse mutation test, strain TA100
Conditions: TA100, positive control, 1 μg/plate
Protocol: The principle of this test is to make use of histidine-requiring strains that are not alive without histidine. This test is performed for detecting histidine recovery, which is original strain property, caused by mutagen in a mutant test.
To carry out the microorganism reverse mutation test, the test was conducted on test standard strains, salmonella typimurium TA98, TA100, TA1535 and TA1537 as pre-culture. […] The salmonella typimurium TA100 is a test strain upon the reversion of guanine and cytosine in a gene, and the salmonella typimurium TA102 is a test strain upon the reversion of adenine and thymine.
As a negative control group, distilled water was used.
The respective test materials, positive control group chemicals, distilled water were treated on a plate, and thereafter the number of revertant strains was measured.

[N-]=[N+]=[N-] [sodium azide]
Average number of revertant strains: 1,279 and 1,559 | Number of revertant strains: 1,136 and 1,421 and 1,662 and 1,456
